PubChem BioAssay (NCI)
In brackets after ≈: the same amount, converted by molar mass. Several values for one entry are separate records, joined by “and”; a condition that tells them apart may be missing. Identical values can stand only once.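 Assay format: 96-well plates, 48-hour exposure. GI50 marks 50% less growth. TGI: concentration producing complete growth inhibition.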

Tests used:
Assay in all cases: inhibition of tumour cell growth, NCI panel, 48 h
[1] = test system: CCRF-CEM leukemia
[2] = test system: DMS 273 small cell lung
[3] = test system: HL-60(TB) leukemia
[4] = test system: HOP-92 NSCLC
[5] = test system: KM20L2 colon
[6] = test system: OVCAR-3 ovarian
[7] = test system: SF-539 CNS
[8] = test system: SK-MEL-28 melanoma
[9] = test system: SNB-19 CNS
[10] = test system: UACC-62 melanoma

Row | SMILES | TGI [1] [µM] | TGI [2] [µM] | TGI [3] [µM] | TGI [4] [µM] | TGI [5] [µM] | TGI [6] [µM] | TGI [7] [µM] | TGI [8] [µM] | TGI [9] [µM] | TGI [10] | GI50 [1] [µg/mL] | GI50 [3] [µg/mL] | GI50 [4] [µg/mL] | GI50 [6] [µg/mL] | GI50 [7] | GI50 [8] [µg/mL] | GI50 [9] | GI50 [10]
1 | O=C1C2=C(c3ccccc31)C(c1ccc(F)cc1)N1C(=O)CCSC1=N2 (centres undefined) | > 100 | > 100 | > 100 | 97.7 | > 100 | > 100 | > 100 | > 100 | > 100 | > 100 µM |  |  |  |  |  |  |  | 
2 | COC(=O)C12C3C4C1C1C2C3C41C(=O)N(C(C)C)C(C)C (centres undefined) | > 100 | > 100 | > 100 | > 100 | > 100 | > 100 | > 100 | > 100 | > 100 | > 100 µM |  |  |  |  |  |  |  | 
3 | Cc1c(N)nc(C(CC(N)=O)NCC(N)C(N)=O)nc1C(=O)NC(C(=O)NC(C)C(O)C(C)C(=O)NC(C(=O)NCCc1nc(-c2nc(C(=O)NCCCNCCCCN)cs2)cs1)C(C)O)C(OC1OC(CO)C(O)C(O)C1OC1OC(CO)C(O)C(OC(N)=O)C1O)c1cnc[nH]1 (centres undefined) | > 10 | > 10 |  |  | > 10 |  |  | > 10 | > 10 | 25.6 µg/mL and > 10 µM | 3.15 (≈ 2.19 µM) | 11.8 (≈ 8.2 µM) | 3.38 (≈ 2.35 µM) | 7.69 (≈ 5.34 µM) | 0.21 µg/mL and 0.0169 µg/mL | 48 (≈ 33.3 µM) | 8.2 µg/mL and 29.7 µg/mL | 0.605 µg/mL and 0.744 µg/mL
4 | O=C(O)c1oc2cccc3c2c1CCC3 | > 100 | > 100 | > 100 | > 100 |  | > 100 | > 100 | > 100 | > 100 | > 100 µM |  |  |  |  |  |  |  | 
5 | CC(=O)OCC(OC(C)=O)C(OC(C)=O)C(OC(C)=O)C(=O)CNn1c(-c2ccccc2Cl)nc2ccc(Br)cc2c1=O (centres undefined) | > 100 | > 100 | 90.1 |  | > 100 | > 100 | > 100 | > 100 | > 100 | > 100 µM |  |  |  |  |  |  |  | 
6 | Cc1cc(Cl)ccc1NC(=O)CCCC(=O)C(C(=O)c1ccccc1)c1ccccc1 (centres undefined) | > 100 | > 100 | > 100 | > 100 | > 100 | > 100 |  |  |  | > 100 µM |  |  |  |  |  |  |  | 
7 | CCCCN(CCCC)C(=O)C(=O)CC(=O)/C=C/c1ccccc1 | > 100 | > 100 | > 100 | > 100 | > 100 | > 100 | > 100 | > 100 | > 100 | > 100 µM |  |  |  |  |  |  |  | 
8 | O=C(O)Cc1cc(=O)[nH]c2c1C(=O)CCC2 | > 100 | > 100 | > 100 | > 100 | > 100 | > 100 |  | > 100 | > 100 |  |  |  |  |  |  |  |  | 
9 | COC(=O)C1=C(c2cc(OC)c(OC)c(OC)c2)O[C@H](c2ccc3c(c2)OCO3)[C@H]1COC(C)=O | > 100 | > 100 | 40.3 | 54.4 | > 100 | > 100 | 91.1 |  |  |  |  |  |  |  |  |  |  | 
10 | COc1cccc2ccc3c(c12)C(=O)OC31CCc2c(C)cccc21 (centres undefined) | > 100 | > 31.6 | 32.9 | 87.9 | > 31.6 | > 46.4 | > 100 | > 46.4 | > 46.4 | > 46.4 µM |  |  |  |  |  |  |  | 
11 | COc1cc(C(=O)C/C(CCC(=O)Nc2ccc(Cl)cc2Cl)=N/Nc2nnc(C)n2N)ccc1O | > 100 | > 100 | > 100 | > 100 | > 100 | > 100 | > 100 | > 100 | > 100 | > 100 µM |  |  |  |  |  |  |  | 
12 | Cc1ccc(SCC(O)=C2C(=O)CCCC2=O)cc1 | > 100 | > 100 | > 100 | > 100 | > 100 | > 100 | > 100 | > 100 | > 100 | > 100 µM |  |  |  |  |  |  |  | 
